Reference: US4481218A, “3-(2,2,2-Trimethylhydrazinium)propionate and method for the preparation and use thereof” (Institut Organicheskogo Sinteza Akademii Nauk Latviiskoi SSR, priority 1978, dated 1984)

Tests used:
young rats = experiment: growth stimulator efficiency in young rats (Example 10, Table 5); assay type: in vivo, rat
Description: (§1) The efficiency of the growth stimulator was studied on young rats. The experiment was carried out with nondescript young rats weighting about 75 g in groups of 30 animals in each. The growth stimulator was administered perorally to each rat as an aqueous solution at a rate of from 0.1 to 0.001% by weight of the consumed daily diet. The administration of the growth stimulator was effected every day during 10 days. The observation period was 20 days; the rats were weighed after every 4 days. […] On completion of the experiment the animals were killed and the parenchymatous organs and peripheral blood were analyzed.

chicks [1] = experiment: growth stimulant efficiency in chicks, 0.04% in feedstuff (Example 7, Table 2); assay type: in vivo; conditions: 0.04% by weight in feedstuff
Description: (§2) The growth stimulator for animals and fowl containing 3-(2,2,2-trimethylhydrazinium)-propionate as the active principle is tested for efficiency. The test is conducted in chicks of 6 days of age, the test group consisting of 50 chicks and the control group--50 chicks. The test chicks were fed with a feedstuff containing 0.02% by weight of the active principle, the control group--only basic diet without the addition of the active principle. The chicks' diet contained, % by weight: barley--20, wheat--6, corn--40, sunflower and soya-bean grist--19, fish flour--7, meat-bone flour--3, yeast--5. One kilogram of the feedstuff contained 1.25 feeding unit, 3,135 kCal of exchange energy, 21% of a crude protein, 4% of crude cellulose and 197 g of digestable protein.
The experiment for testing efficiency of the growth stimulant for animals and fowl according to the present invention was carried out following the procedure similar to that described in the foregoing Example 6; added to the feedstuff was 0.04% by weight of the active principle based on the feedstuff weight. By the end of the 34-days' period the chicks of the test groups fed with the growth stimulant were 12.9% heavier.

white mice = experiment: in vivo; conditions: mouse
Description: (§3) The toxicological study of 3-(2,2,2-trimethylhydrazinium)-propionate on white mice weighing 20-25 g has shown that with a single peroral administration to the animals in doses of up to 23,000 mg/kg the preparation causes no death of the animals.

in vivo = experiment: in vivo; design: species or system white mice; conditions: mouse, ip
Description: as §3

[2] = tested on: barley, oats, rye and wheat; experiment: growth-controlling activity on plants; assay type: in vivo
From the text: (§4) The study of specific activity of 3-(2,2,2-trimethylhydrazinium)-propionatewas effected on various animals: mice, rats, pigs, cattle, chickens, goslings, turkey poults and ducklings. The growth-controlling activity of this compound relative to plats has been studied on barley, oats, rye and wheat.

[3] = tested on: microbless pig mini-sucklings; experiment: growth stimulant efficiency in microbless pig mini-sucklings (Example 8, Table 3); assay type: in vivo
Description: The efficiency of the growth stimulant for animals according to the present invention was tested in feeding of microbless animals. The test was carried out in microbless pig mini-sucklings grown without under sterile conditions in a comparison with pig mini sucklings grown keeping to the requirements of sterile conditions, since birth and to the age of two-months, a feedstuff containing 0.04% by weight of the active principle. Their growth was compared to that of 10 sucklings grown without keeping to sterility conditions and the development of 7 microbless pig sucklings. By the end of the experiment the test pig sucklings were 17.2% heavier than the microbless pig sucklings given no growth stimulant and 18.2% heavier than the sucklings grown under nonsterile conditions and given no growth stimulator.

pubertal rats = experiment: growth stimulator efficiency in pubertal rats (Example 11, Table 6); assay type: in vivo, rat
Description: as §1
The growth stimulator efficiency was studied on pubertal rats. The experiment conditions were similar to those described in the foregoing Example 10.

animals and fowl = experiment: specific (growth-stimulating) activity on animals and fowl, general; assay type: in vivo
From the text: as §4

white-breed young pigs = experiment: growth stimulator efficiency in white-breed young pigs (Example 9, Table 4); assay type: in vivo, pig; conditions: 0.02% by weight, 122 days
Description: The efficiency of the growth stimulator was tested on white-breed young pigs deprived of mother's milk with the body weight of about 20 kg, […], in each group.
The young pigs were in the same pig sty and serviced by one operator; all of the animals were on the same diet consisting of barley flour, green mass of a vetch-oat mixture and whey. The animals were fed two times a day with free watering. To the feedstuff of the test group there were added 200 mg of 3-(2,2,2-trimethylhydrazinium)propionate per 1 kg of dry substance of the feed-stuff (0.02% by weight of the active principle).

solubility = assay type: physicochemical
Description: The compound according to the present invention, viz. 3-(2,2,2-trimethylhydrazinium)propionate comprises a colourless crystalline powder with a melting point of 254°-256° C. (from ethanol). […] (p.p.m.): 6.70 singlet, (CH3)3 N; 6.89, triplet, CH2,

chicks [4] = experiment: growth stimulator efficiency in chicks, 0.02% in feedstuff (Example 6, Table 1); assay type: in vivo; conditions: 0.02% by weight in feedstuff
Description: as §2

[5] = 0.001% of the active principle, day 4
[6] = 0.001% of the active principle, day 8
[7] = 0.001% of the active principle, day 12
[8] = 0.001% of the active principle, day 16
[9] = 0.001% of the active principle, day 20
[10] = 0.01% of the active principle, day 4
[11] = 0.01% of the active principle, day 8
[12] = 0.01% of the active principle, day 12
[13] = 0.01% of the active principle, day 16
[14] = 0.01% of the active principle, day 20

Structure (SMILES): C[N+](C)(C)NCCC(=O)[O-] [3-(2,2,2-trimethylhydrazinium)-propionate]
- increase of body weight gain of the rats (young rats; 0.001% by weight of the daily diet): 12.5%
- Weight on the day of weighing (young rats; [5]): 76 g
- Weight on the day of weighing (young rats; [6]): 99 g
- Weight on the day of weighing (young rats; [7]): 131 g
- Weight on the day of weighing (young rats; [8]): 154 g
- Weight on the day of weighing (young rats; [9]): 164 g
- increase of body weight gain of the rats (young rats; 0.01% by weight of the daily diet): 12%
- Weight on the day of weighing (young rats; [10]): 79 g
- Weight on the day of weighing (young rats; [11]): 93 g
- Weight on the day of weighing (young rats; [12]): 125 g
- Weight on the day of weighing (young rats; [13]): 139 g
- Weight on the day of weighing (young rats; [14]): 158 g
- effect on weight gain of the rats (young rats; 0.1% by weight of the daily diet): substantially did not affect the weight gain
- Weight on the day of weighing (young rats; 0.1% of the active principle, day 4): 76 g
- Weight on the day of weighing (young rats; 0.1% of the active principle, day 8): 95 g
- Weight on the day of weighing (young rats; 0.1% of the active principle, day 12): 98 g
- Weight on the day of weighing (young rats; 0.1% of the active principle, day 16): 107 g
- Weight on the day of weighing (young rats; 0.1% of the active principle, day 20): 129 g
- pathology of parenchymatous organs and peripheral blood (young rats; 0.1 to 0.001% by weight of the daily diet, perorally 10 days): No pathology was observed
- chicks heavier by the end of the 34-days' period (chicks [1]): 12.9%
- Average body weight of chicks, aged 30 days (chicks [1]; control 261.9): 268.9 g
- Average mass gain for the test time (chicks [1]; control 313 ± 3): 353 ± 8 g
- Average body weight of chicks, aged 40 days (chicks [1]; control 364.3): 404.8 g
- Average body weight of chicks, aged 6 days (chicks [1]; test beginning): 51.0 g
- Percentage to the control (chicks [1]; mass gain, control = 100.0): 112.9%
- single peroral dose causing no death of the animals (white mice): up to 23,000 mg/kg
- NOAEL (in vivo): ≥ 10000 mg/kg
- specific gravity of grain crops ([2]; grain crops): increased
- yield gain of crops ([2]; grain crops): 15-30%
- increase in the stem diameter of crops ([2]; oats, barley, rye, wheat): 15%
- stability against lodging ([2]; oats, barley, rye, wheat): improving their stability against lodging
- growth-controlling effect ([2]; plants): clearly pronounced growth-controlling effect
- heavier than the microbless pig sucklings given no growth stimulant ([3]; 0.04% by weight, 2 months' age): 17.2%
- heavier than the sucklings grown under nonsterile conditions and given no growth stimulator ([3]; 0.04% by weight, 2 months' age): 18.2%
- Animal weight at the 2-months' age ([3]; microbless mini-pigs, 0.04% by weight of feedstuff, untreated microbless 3,271 ± 385, ordinary 3,244 ± 335): 3,833 ± 348 g
- Weight on the weighing day (pubertal rats; [5]): 175 g
- Weight on the weighing day (pubertal rats; [6]): 189 g
- Weight on the weighing day (pubertal rats; [7]): 210 g
- Weight on the weighing day (pubertal rats; [8]): 231 g
- Weight on the weighing day (pubertal rats; [9]): 248 g
- Weight on the weighing day (pubertal rats; [10]): 169 g
- Weight on the weighing day (pubertal rats; [11]): 175 g
- Weight on the weighing day (pubertal rats; [12]): 189 g
- Weight on the weighing day (pubertal rats; [13]): 215 g
- Weight on the weighing day (pubertal rats; [14]): 229 g
- Weight on the weighing day (pubertal rats; 0.1% of the principle, day 4): 155 g
- Weight on the weighing day (pubertal rats; 0.1% of the principle, day 8): 161 g
- Weight on the weighing day (pubertal rats; 0.1% of the principle, day 12): 174 g
- Weight on the weighing day (pubertal rats; 0.1% of the principle, day 16): 187 g
- Weight on the weighing day (pubertal rats; 0.1% of the principle, day 20): 203 g
- body weight gain (pubertal rats; active principle 0.001% by weight of the dry feedstuff): 13.5%
- body weight gain (pubertal rats; active principle 0.101% (so in the source) by weight of the dry feedstuff): 9%
- growth-stimulating activity (animals and fowl; animals and fowl): clearly pronounced growth-stimulating activity
- daily weight gain (animals and fowl; depending on the variety of animals and fowl): 8-24%
- metabolism (animals and fowl; test animals and fowl): metabolism is improved
- reduction of the rate of feedstock consumption per weight gain unit (animals and fowl; test animals and fowl): 7-15%
- Average daily weight gain, percent of the control (white-breed young pigs): 112.4% of the control
- Feedstuff consumption per 1 kg of the body weight gain, % of control (white-breed young pigs): 92.9 % of control
- weight gain higher as compared to the control group animals (white-breed young pigs): 7.4 kg
- Feedstuff consumption per 1 kg of the body weight gain (white-breed young pigs; control 4.38): 4.07 feeding units
- Body weight gain during the test period (white-breed young pigs; control 59.0 ± 2.1): 66.4 ± 3.6 kg
- Average body weight by the test end (white-breed young pigs; control 74.0 ± 3.2): 88.2 ± 4.0 kg
- Feedstuff consumption during the test period (white-breed young pigs; control 285.5): 270.7 feeding units
- Average daily weight gain (white-breed young pigs; control 484 ± 17): 544 ± 32 g
- reduction of consumption of feeding units per kilogram of the weight gain (white-breed young pigs; vs control): 7.1%
- solubility in ethanol and methanol (solubility; ethanol and methanol): well soluble
- solubility in water (solubility; water): very readily soluble
- Average body weight of chicks, aged 30 days (chicks [4]): 289.4 g
- weight gain compared to the control chicks (chicks [4]; 34 days): 7.7%
- Average gain for the test time (chicks [4]; 34 days, control 364.5 ± 10.1): 392.7
- Average body weight of chicks, aged 40 days (chicks [4]; end of 34 days, control 412.2 g): 440.5 g
- Average body weight of chicks, aged 6 days (chicks [4]; test beginning (6 days of age)): 47.8 g
- Percentage to the control (chicks [4]; average gain, control = 100.0): 107.7%
